Laboratory results published in patent publication US10786930B2, “Articles having antimicrobial properties and methods of manufacturing the same” (Medline Industries, Inc., priority 2010, dated 2020).

Tested on: aerobic bacteria
Experiment: total bacterial count test on finished gloves (TSA plates)
Settings: FIG. 5, total bacteria count on prepared articles as a function of CHG concentration in the coagulant
Description: In order to determine the effectiveness of the antimicrobial coagulant on a finished article, a total bacterial count test was completed on the article prepared using the above formulas. The following three concentrations were prepared: 0.8% Saline Solution (sodium Chloride), 4% TSA & 6.5% SDA solution, which were subsequently sterilized at 121° C. for 15 minutes. Three gloves made with each formula were cut into two pieces each and were soaked into 60 ml Saline solution and shaken for 10 minutes. After that, 1 ml of the solution and 1 ml of Agar solution (TSA and SDA) were pipetted out into a Petri dish. The Petri dish plates were incubated for 2 days at 30-35° C. for TSA & 4 days at 20-25° C. for SDA. The colonies on each plate was counted and total fungus/aerobic bacteria count per glove was calculated as: Total Aerobic Bacteria Count Per Glove=(Count of TSA plate*60)/3 Total Fungus Count Per Glove=(Count of SDA plate*60)/3 The results of total bacteria count on TSA for above four samples and control sample are listed below.

## N=C(NCCCCCCNC(=N)NC(=N)Nc1ccc(Cl)cc1)NC(=N)Nc1ccc(Cl)cc1.O=C(O)[C@H](O)[C@@H](O)[C@H](O)[C@H](O)CO.O=C(O)[C@H](O)[C@@H](O)[C@H](O)[C@H](O)CO [CHG, chlorhexidine gluconate]
  concentration of CHG up to which total bacteria count decreased (above it the count increased): approximately 0.02%
